Earlier results, collected in patent US7772273B2 (LifeCycle Pharma A/S, priority 2006, dated 2010).
Where two headings read alike, the source gives them in different places.

How the values were obtained:
[1] = at 25° C.
[2] = oral

Water solubility [1]	Systemic availability of HMG-CoA reductase inhibitory activity [2]	SMILES	LDL-C reduction (LDL-C; given with or without food)	LDL-C reduction (LDL-C; regardless of the time of day of drug administration)
about 550 mg/mL		NC(CO)(CO)CO [Trometamol, 2-amino-2-(hydroxymethyl)-1,3-propanediol]		
	approximately 30%	CC(C)c1c(C(=O)Nc2ccccc2)c(-c2ccccc2)c(-c2ccc(F)cc2)n1CCC(O)CC(O)CC(=O)O (stereo not drawn) [atorvastatin, 2-(4-fluorophenyl)-β,δ-dihydroxy-5-(1-methylethyl)-3-phenyl-4-[(phenylamino)carbonyl]-1H-pyrrole-1-heptanoic acid]	similar	the same
